Test results from PubChem BioAssay (NCI).
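A five-concentration, 48-hour dose response in 96-well plates underlies each endpoint, interpolated linearly between surrounding concentrations. GI50 is the concentration that inhibits growth by half. TGI denotes the concentration required for complete inhibition of growth.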

Tests used:
Experiment in all cases: NCI-60 cell line screen, 48 h
786-0 renal = tested on: 786-0 renal
A498 renal = tested on: A498 renal
A549 NSCLC = tested on: A549 NSCLC
ACHN renal = tested on: ACHN renal
BT-549 breast = tested on: BT-549 breast
CCRF-CEM leukemia = tested on: CCRF-CEM leukemia
COLO 205 colon = tested on: COLO 205 colon
DU-145 prostate = tested on: DU-145 prostate
EKVX NSCLC = tested on: EKVX NSCLC
HCC-2998 colon = tested on: HCC-2998 colon
HCT-116 colon = tested on: HCT-116 colon
HCT-15 colon = tested on: HCT-15 colon
HL-60(TB) leukemia = tested on: HL-60(TB) leukemia
HOP-62 NSCLC = tested on: HOP-62 NSCLC
HOP-92 NSCLC = tested on: HOP-92 NSCLC
HS 578T breast = tested on: HS 578T breast
HT29 colon = tested on: HT29 colon
IGROV1 ovarian = tested on: IGROV1 ovarian
K-562 leukemia = tested on: K-562 leukemia
KM12 colon = tested on: KM12 colon
LOX IMVI melanoma = tested on: LOX IMVI melanoma
M14 melanoma = tested on: M14 melanoma
MALME-3M melanoma = tested on: MALME-3M melanoma
MCF7 breast = tested on: MCF7 breast
MDA-MB-231 breast = tested on: MDA-MB-231 breast
MDA-MB-435 = tested on: MDA-MB-435
NCI-H226 lung = tested on: NCI-H226 lung
NCI-H23 lung = tested on: NCI-H23 lung
NCI-H460 lung = tested on: NCI-H460 lung
NCI-H522 lung = tested on: NCI-H522 lung
NCI/ADR-RES ovarian = tested on: NCI/ADR-RES ovarian
OVCAR-3 ovarian = tested on: OVCAR-3 ovarian
OVCAR-4 ovarian = tested on: OVCAR-4 ovarian
OVCAR-5 ovarian = tested on: OVCAR-5 ovarian
OVCAR-8 ovarian = tested on: OVCAR-8 ovarian
PC-3 prostate = tested on: PC-3 prostate
RPMI-8226 leukemia = tested on: RPMI-8226 leukemia
RXF 393 renal = tested on: RXF 393 renal
SF-268 CNS = tested on: SF-268 CNS
SF-295 CNS = tested on: SF-295 CNS
SF-539 CNS = tested on: SF-539 CNS
SK-MEL-2 melanoma = tested on: SK-MEL-2 melanoma
SK-MEL-28 melanoma = tested on: SK-MEL-28 melanoma
SK-MEL-5 melanoma = tested on: SK-MEL-5 melanoma
SK-OV-3 ovarian = tested on: SK-OV-3 ovarian
SN12C renal = tested on: SN12C renal
SNB-19 CNS = tested on: SNB-19 CNS
SNB-75 CNS = tested on: SNB-75 CNS
SR leukemia = tested on: SR leukemia
SW-620 colon = tested on: SW-620 colon
T-47D breast = tested on: T-47D breast
TK-10 renal = tested on: TK-10 renal
U251 CNS = tested on: U251 CNS
UACC-257 melanoma = tested on: UACC-257 melanoma
UACC-62 melanoma = tested on: UACC-62 melanoma
UO-31 renal = tested on: UO-31 renal

CCNc1nc(-c2ccc(Cl)c(OC)c2)c(-c2ccnc(NCCNS(=O)(=O)c3ccc(Cl)cc3)n2)s1
GI50 (786-0 renal): 3.46 µM
TGI (786-0 renal): 13.9 µM
GI50 (A498 renal): 1.5 µM
TGI (A498 renal): 6.52 µM
GI50 (A549 NSCLC): 3.57 µM
TGI (A549 NSCLC): 53.6 µM
GI50 (ACHN renal): 3.14 µM
TGI (ACHN renal): > 100 µM
GI50 (BT-549 breast): 3.09 µM
TGI (BT-549 breast): 38 µM
GI50 (CCRF-CEM leukemia): 2.83 µM
TGI (CCRF-CEM leukemia): > 100 µM
GI50 (COLO 205 colon): 2.32 µM
TGI (COLO 205 colon): 6.61 µM
GI50 (DU-145 prostate): 3.94 µM
TGI (DU-145 prostate): > 100 µM
GI50 (EKVX NSCLC): 3.74 µM
TGI (EKVX NSCLC): > 100 µM
GI50 (HCC-2998 colon): 4.97 µM
TGI (HCC-2998 colon): > 100 µM
GI50 (HCT-116 colon): 2.65 µM
TGI (HCT-116 colon): 6.25 µM
GI50 (HCT-15 colon): 3.36 µM
TGI (HCT-15 colon): > 100 µM
GI50 (HL-60(TB) leukemia): 2.87 µM
TGI (HL-60(TB) leukemia): 7.16 µM
GI50 (HOP-62 NSCLC): 3.2 µM
TGI (HOP-62 NSCLC): 7.69 µM
GI50 (HOP-92 NSCLC): 2.64 µM
TGI (HOP-92 NSCLC): 9.58 µM
GI50 (HS 578T breast): 3.98 µM
TGI (HS 578T breast): 87.2 µM
GI50 (HT29 colon): 2.92 µM
TGI (HT29 colon): 20.1 µM
GI50 (IGROV1 ovarian): 4.68 µM
TGI (IGROV1 ovarian): > 100 µM
GI50 (K-562 leukemia): 3.17 µM
TGI (K-562 leukemia): > 100 µM
GI50 (KM12 colon): 3.52 µM
TGI (KM12 colon): > 100 µM
GI50 (LOX IMVI melanoma): 2.32 µM
TGI (LOX IMVI melanoma): 5.69 µM
GI50 (M14 melanoma): 3.82 µM
TGI (M14 melanoma): > 100 µM
GI50 (MALME-3M melanoma): 2.2 µM
TGI (MALME-3M melanoma): 7.39 µM
GI50 (MCF7 breast): 3.03 µM
TGI (MCF7 breast): > 100 µM
GI50 (MDA-MB-231 breast): 2.15 µM
TGI (MDA-MB-231 breast): 5.03 µM
GI50 (MDA-MB-435): 3.02 µM
TGI (MDA-MB-435): 40.6 µM
GI50 (NCI-H226 lung): 2.81 µM
TGI (NCI-H226 lung): 14.3 µM
GI50 (NCI-H23 lung): 3.5 µM
TGI (NCI-H23 lung): > 100 µM
GI50 (NCI-H460 lung): 3.2 µM
TGI (NCI-H460 lung): > 100 µM
GI50 (NCI-H522 lung): 1.92 µM
TGI (NCI-H522 lung): 4.35 µM
GI50 (NCI/ADR-RES ovarian): 3.51 µM
TGI (NCI/ADR-RES ovarian): > 100 µM
GI50 (OVCAR-3 ovarian): 2.45 µM
TGI (OVCAR-3 ovarian): 5.27 µM
GI50 (OVCAR-4 ovarian): 3.82 µM
TGI (OVCAR-4 ovarian): > 100 µM
GI50 (OVCAR-5 ovarian): 3.67 µM
TGI (OVCAR-5 ovarian): > 100 µM
GI50 (OVCAR-8 ovarian): 3.88 µM
TGI (OVCAR-8 ovarian): > 100 µM
GI50 (PC-3 prostate): 2.99 µM
TGI (PC-3 prostate): > 100 µM
GI50 (RPMI-8226 leukemia): 2.93 µM
TGI (RPMI-8226 leukemia): 8.39 µM
GI50 (RXF 393 renal): 2 µM
TGI (RXF 393 renal): 5.1 µM
GI50 (SF-268 CNS): 4.03 µM
TGI (SF-268 CNS): > 100 µM
GI50 (SF-295 CNS): 1.89 µM
TGI (SF-295 CNS): 3.83 µM
GI50 (SF-539 CNS): 2.51 µM
TGI (SF-539 CNS): 6.63 µM
GI50 (SK-MEL-2 melanoma): 2 µM
TGI (SK-MEL-2 melanoma): 4.41 µM
GI50 (SK-MEL-28 melanoma): 3.33 µM
TGI (SK-MEL-28 melanoma): > 100 µM
GI50 (SK-MEL-5 melanoma): 1.56 µM
TGI (SK-MEL-5 melanoma): 3.23 µM
GI50 (SK-OV-3 ovarian): 3.66 µM
TGI (SK-OV-3 ovarian): 55.1 µM
GI50 (SN12C renal): 3.41 µM
TGI (SN12C renal): > 100 µM
GI50 (SNB-19 CNS): 4.59 µM
TGI (SNB-19 CNS): > 100 µM
GI50 (SNB-75 CNS): 2.35 µM
TGI (SNB-75 CNS): 29.8 µM
GI50 (SR leukemia): 2.7 µM
TGI (SR leukemia): 7.51 µM
GI50 (SW-620 colon): 4.22 µM
TGI (SW-620 colon): > 100 µM
GI50 (T-47D breast): 2.48 µM
TGI (T-47D breast): 8.02 µM
GI50 (TK-10 renal): 4.09 µM
TGI (TK-10 renal): 41.8 µM
GI50 (U251 CNS): 3.24 µM
TGI (U251 CNS): 10.3 µM
GI50 (UACC-257 melanoma): 3.44 µM
TGI (UACC-257 melanoma): 49.4 µM
GI50 (UACC-62 melanoma): 2.11 µM
TGI (UACC-62 melanoma): 5.49 µM
GI50 (UO-31 renal): 2.51 µM
TGI (UO-31 renal): 6.37 µM
